# Where two headings read alike, the source gives them in different places.
# Legend:
# [1] = tested on: Methicillin resistant Staphylococcus aureus (ATCC 33591); format: cell-based; details: for MRSA IC50: Table 4; for IC50 / MIC: ATCC 33591; for activity against MRSA (in words): gram-positive organism
# Experimental: (§1) The antimicrobial compounds of the present invention were assayed using a standard microdilution assay against gram-positive bacteria Staphylococcus aureus (strain used: ATTC 29213) and methicillin-resistant strain used ATCC 33591) and the gram-negative bacteria Pseudomonas aeruginosa (strain used ATCC27853). The samples were assayed against 1-5×10^5 colony forming units, in Mueller-Hinton broth, at 37° C. The activity was determined following a 21 hour incubation. The IC50 values were calculated using sigmoidal curve fitting software. (Graphpad™, ISI Software, San Diego, Calif.) and correspond to the sample concentration which inhibits 50 percent of bacterial growth. The minimum inhibitory concenttration (MIC) is defined as the lowest concentration of sample at which no growth is detected by optical density between
# [2] = tested on: Pseudomonas aeruginosa (ATCC27853); format: cell-based; details: for Ps A. IC50: Table 4; for activity against Pseudomonas aeruginosa (in words): gram negative organism
# Experimental: as §1
# [3] = Table 2, Mueller-Hinton broth, 37° C., 21 hour incubation, 50 percent inhibition of bacterial growth
# [4] = Table 2, lowest concentration at which no growth is detected, 21 hour incubation
Compound,IC50 [1] [µg/mL],MIC [1] [µg/mL],"IC50 ([2]; ATCC27853, 21 h) [µg/mL]","MIC ([2]; ATCC27853, 21 h) [µg/mL]",other results
4-AMBψ[CH2NH]Lys-Ser-4-AMBψ[CH2NH]Leu-OH [Compound 38],,,,,MRSA IC50 [1]: > 500 µg/mL; Ps A. IC50 [2]: > 500 µg/mL
4-AMBψ[CH2NH]Lys-Ser-Pheψ[CH2NH]Leu-OH [Compound 37],,,,,MRSA IC50 [1]: > 500 µg/mL; Ps A. IC50 [2]: 415 µg/mL
"CC(C)C[C@H](NC[C@H](Cc1ccccc1)NC(=O)[C@H](CO)NC(=O)[C@H](CCCCN)NC[C@@H](N)Cc1ccc2ccccc2c1)C(=O)O [Compound 1, H-2-Nal ψ[CH2NH]Lys-Ser-Pheψ[CH2NH]Leu-OH]",3,8 to 16,,,"activity against MRSA (in words) [1]: most active; IC50 [2, 3]: 10 µg/mL; MIC [2, 4]: 16 to 32 µg/mL"
"CC(C)C[C@H](NC[C@H](Cc1ccccc1)NC(=O)[C@@H](NC(=O)[C@H](CCCCN)NC[C@@H](N)Cc1ccc2ccccc2c1)C(C)C)C(=O)O [Compound 2, H-2-Nalψ[CH2NH]Lys-Val-Pheψ[CH2NH]Leu-OH]",69,125 to 250,58,80 to 152,
"CC(C)C[C@H](NC[C@H](Cc1ccccc1)NC(=O)[C@H](Cc1ccccc1)NC(=O)[C@H](CCCCN)NC[C@@H](N)Cc1ccc2ccccc2c1)C(=O)O [Compound 3, H-2-Nalψ[CH2NH]Lys-Phe-Pheψ[CH2NH]Leu-OH]",19,125 to 150,31,40 to 62,
"CSCC[C@H](NC[C@@H](N)Cc1ccc2ccccc2c1)C(=O)N[C@@H](Cc1ccccc1)C(=O)N[C@H](CN[C@@H](CC(C)C)C(=O)O)Cc1ccccc1 [Compound 6, H-2-Nalψ[CH2NH]Met-Phe-Pheψ[CH2NH]Leu-OH]",44,125 to 250,,,
"CC[C@H](C)[C@H](NC[C@@H](N)Cc1ccc2ccccc2c1)C(=O)N[C@@H](CO)C(=O)N[C@H](CN[C@@H](CC(C)C)C(=O)O)Cc1ccccc1 [Compound 7, H-2-Nalψ[CH2NH]Ile-Ser-Pheψ[CH2NH]Leu-OH]",69,125 to 250,,,
"CC[C@H](C)[C@H](NC[C@@H](N)Cc1ccc2ccccc2c1)C(=O)N[C@H](C(=O)N[C@H](CN[C@@H](CC(C)C)C(=O)O)Cc1ccccc1)C(C)C [Compound 8, H-2-Nalψ[CH2NH]Ile-Val-Pheψ[CH2NH]Leu-OH]",5,8 to 16,,,
"CC[C@H](C)[C@H](NC[C@@H](N)Cc1ccc2ccccc2c1)C(=O)N[C@@H](Cc1ccccc1)C(=O)N[C@H](CN[C@@H](CC(C)C)C(=O)O)Cc1ccccc1 [Compound 9, H-Nalψ[CH2NH]Ile-Phe-Pheψ[CH2NH]Leu-OH]",9,16 to 32,,,
"CC(C)C[C@H](NC[C@H](Cc1ccccc1)NC(=O)[C@H](Cc1ccccc1)NC(=O)C(C)(C)NC[C@@H](N)Cc1ccc2ccccc2c1)C(=O)O [Compound 12, H-2-Nalψ[CH2NH]Aib-Phe-Pheψ[CH2NH]Leu-OH]",26,125 to 250,,,
"CC(C)C[C@H](NC[C@H](Cc1ccccc1)NC(=O)C(C)(C)NC(=O)[C@H](CCCCN)NC[C@@H](N)Cc1ccc2ccccc2c1)C(=O)O [Compound 13, H-2-Nalψ[CH2NH]Lys-Aib-Pheψ[CH2NH]Leu-OH]",54,125 to 250,59,80 to 125,activity against Pseudomonas aeruginosa (in words) [2]: good potency
"CSCCC(NCC(N)Cc1ccc2ccccc2c1)C(=O)NC(C)(C)C(=O)NC(CNC(CC(C)C)C(=O)O)Cc1ccccc1 (stereo not drawn) [Compound 14, H-2-Nalψ[CH2NH]Met-Aib-Pheψ[CH2NH]Leu-OH]",3,8 to 16,20,31 to 62,activity against MRSA (in words) [1]: also active; activity against Pseudomonas aeruginosa (in words) [2]: good potency
"CC[C@H](C)[C@H](NC[C@@H](N)Cc1ccc2ccccc2c1)C(=O)NC(C)(C)C(=O)N[C@H](CN[C@@H](CC(C)C)C(=O)O)Cc1ccccc1 [Compound 15, H-2-Nalψ[CH2NH]Ile-Aib-Pheψ[CH2NH]Leu-OH]",39,80 to 125,,,
"CCC(CC)(NC[C@@H](N)Cc1ccc2ccccc2c1)C(=O)N[C@@H](CO)C(=O)N[C@H](CN[C@@H](CC(C)C)C(=O)O)Cc1ccccc1 [Compound 16, H-2-Nalψ[CH2NH]Deg-Ser-Pheψ[CH2NH]Leu-OH]",17,62 to 125,,,"IC50 [2, 3]: 170 µg/mL; MIC [2, 4]: > 250 µg/mL"
"CCC(CC)(NC[C@@H](N)Cc1ccc2ccccc2c1)C(=O)N[C@@H](Cc1ccccc1)C(=O)N[C@H](CN[C@@H](CC(C)C)C(=O)O)Cc1ccccc1 [Compound 18, H-2-Nalψ[CH2NH]Deg-Phe-Pheψ[CH2NH]Leu-OH]",6,16 to 32,,,
"CCC(CC)(NC(=O)[C@H](CCCCN)NC[C@@H](N)Cc1ccc2ccccc2c1)C(=O)N[C@H](CN[C@@H](CC(C)C)C(=O)O)Cc1ccccc1 [Compound 19, H-2-Nalψ[CH2NH]Lys-Deg-Pheψ[CH2NH]Leu-OH]",67,125 to 250,143,250 to 500,
"CCC(CC)(NC(=O)[C@H](CCSC)NC[C@@H](N)Cc1ccc2ccccc2c1)C(=O)N[C@H](CN[C@@H](CC(C)C)C(=O)O)Cc1ccccc1 [Compound 20, H-Nalψ[CH2NH]Met-Deg-Pheψ[CH2NH]Leu-OH]",5,16 to 32,64,80 to 125,activity against Pseudomonas aeruginosa (in words) [2]: good potency

# From US6551998B1, “Antimicrobial agents” (University of Louisville Research Foundation, Inc., priority 1999, dated 2003)
